The numbers were not newly measured in US20180235913A1, “AN ORAL PHARMACEUTICAL FORMULATION COMPRISING SUSTAINED-RELEASE GRANULES CONTAINING TAMSULOSIN HYDROCHLORIDE” (HANMI PHARM. CO., LTD., priority 2015, published 2018), which cites them from elsewhere.

For this data set the following is noted: white crystalline powder.

Structures can show the parent of a compound that is named as a salt.

`CCOc1ccccc1OCCN[C@H](C)Cc1ccc(OC)c(S(N)(=O)=O)c1` [Tamsulosin hydrochloride]: the Water solubility entry is “slight water solubility”.
